Test results as given in article PMC9544171, “Glucose‐dependent insulinotropic polypeptide receptor antagonist treatment causes a reduction in weight gain in ovariectomised high fat diet‐fed mice” (British Journal of Pharmacology, 2022).
Where a SMILES comes first, the peptide text is derived from it. The star is where a group is joined. C16 diacid = O=C(O)CCCCCCCCCCCCCCC(=O)*

Columns and labels:
[1] = target: T1, mouse GLP‐1 receptor (Mus musculus, UniProt O35659); assay: cAMP accumulation, agonism in transfected COS‐7 cells; format: cell-based; conditions: increasing concentrations, COS‐7, n = 5
T1 construct: host or cells: COS-7
T1 sequence (O35659 22-463): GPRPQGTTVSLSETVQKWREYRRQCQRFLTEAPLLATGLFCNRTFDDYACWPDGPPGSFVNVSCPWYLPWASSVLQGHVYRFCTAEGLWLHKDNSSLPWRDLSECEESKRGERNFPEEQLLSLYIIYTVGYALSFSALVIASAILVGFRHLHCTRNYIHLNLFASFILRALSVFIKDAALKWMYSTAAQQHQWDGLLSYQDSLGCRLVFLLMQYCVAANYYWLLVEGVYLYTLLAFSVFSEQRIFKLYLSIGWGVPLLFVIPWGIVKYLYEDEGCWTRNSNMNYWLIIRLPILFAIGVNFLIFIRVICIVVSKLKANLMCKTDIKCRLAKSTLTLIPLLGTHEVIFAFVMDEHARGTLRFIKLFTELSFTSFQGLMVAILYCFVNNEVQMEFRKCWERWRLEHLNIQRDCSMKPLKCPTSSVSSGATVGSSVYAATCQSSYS
Description: COS‐7 cells were cultured at 10% CO2 and 37°C in Dulbecco's Modified Eagle Medium 1885 supplemented with 10% foetal bovine serum, 2‐mM glutamine, 180‐units ml^−1 penicillin and 45‐g·ml^−1 streptomycin. […] A second set of cells was transiently transfected with either mouse GLP‐1 or GLP‐2 receptor. Following the day after transfection, the cells were seeded in white 96‐well plates with a density of 35.000 cells per well. The next day the assay was initiated by washing the cells with HEPES buffered saline (HBS) followed by an incubation step with HBS and 1‐mM 3‐isobutyl‐1‐methylxanthine for 30 min at 37°C. For agonist studies, the ligands were then added and incubated for an additional 30 min at 37°C. To test for antagonistic properties, the cells were first preincubated for 10 min with the antagonist with subsequent addition of the agonist and incubated for an additional 20 min. The HitHunter® cAMP assay (Eurofins DiscoverX, Fremont, USA) was carried out according to the manufacturer's protocol. Luminescence was measured by PerkinElmer™ Envision 2014 Multilabel Reader.
COS‐7 cells were transiently transfected with (a) mouse GLP1‐R and (b) mouse GLP‐2 R and assayed for cAMP accumulation. […] Data are shown as mean ± SE from n = 5 independent experiments

[2] = tested on: Female ovariectomised C57Bl6/J mice; assay: Oral glucose tolerance test after 7 weeks of treatment; format: in vivo, mouse
Description: After 7 weeks HFD and mGIPAnt‐1 treatment, an oral glucose tolerance test was performed. Animals were fasted from 08:00 AM to 11:00 AM and received 2‐g·kg^−1 glucose through oral gavage. Blood glucose was measured in the tail vein samples using a hand‐held glucometer (Accu‐Chek Mobile, Roche) at t = 0, 15, 30, 45, 60, 120 and 180 min. Retro‐orbital blood samples (75 μl) were taken using EDTA coated glass capillaries at t = 0, 15, 30 and 60 min and centrifuged at 3500g, 20 min, 4°C. Plasma was transferred into Eppendorf tubes on dry ice and stored at −20°C for later analysis of insulin measurements.
(§1) Insulin levels in intraperitoneal glucose tolerance test and oral glucose tolerance test plasma samples were measured using a mouse insulin ELISA (catalogue no. 10‐1247‐10; Mercodia AB, Uppsala, Sweden). Adiponectin levels in terminal plasma samples were measured using a mouse adiponectin ELISA kit (catalogue no. 80569, Crystal Chem, Elk Grove Village, IL, USA). Adiponectin samples were carefully diluted in kit‐specific assay buffer. The manufacturer's instructions were followed closely.

[3] = tested on: Female ovariectomised C57Bl6/J mice; assay: Terminal plasma adiponectin, triglyceride and glycerol; format: in vivo, mouse; conditions: 8 weeks of 300 nmol·kg−1 s.c. daily
Excerpt: A week after ovariectomy, at 10 weeks of age, animals were randomized into groups and placed on a 60 kcal% HFD (HFD, D12492, Research Diets, New Brunswick, NJ, USA) or a control diet (10 kcal% fat, D12450J, Research Diets) for 8 weeks. Group sizes were as follows: Vehicle/control diet, n = 12; mGIPAnt‐1/control diet, n = 12; Vehicle/HFD, n = 11; mGIPAnt‐1/HFD, n = 12. The reduction of animal numbers in group Vehicle/HFD was due to unexpected loss of an animal. Animals received a daily s.c. injection at 4:30 PM with mGIPAnt‐1 (300‐nmol·kg^−1) or vehicle. Body weight and body composition were assessed weekly (LF90II body composition analyzer, Bruker, Billerica, MA, USA). On the final experimental day, animals were anaesthetized with an intraperitoneal injection of 90 mg·kg^−1 ketamine and 10‐mg·kg^−1 xylazine. The microchip was quickly removed from HM‐2 cage animals and a final body composition measurement was performed on all animals. A terminal retro‐orbital blood sample was taken, mice were killed through cervical dislocation and tissues were quickly dissected and weighed.
as §1
Triglyceride and free glycerol levels in terminal plasma samples were determined using a triglyceride and free glycerol kit (TR0100‐1KT, Sigma‐Aldrich, St. Louis, MO, USA).

SMILES: CC[C@H](C)[C@H](NC(=O)[C@H](CO)NC(=O)[C@H](Cc1ccc(O)cc1)NC(=O)[C@H](CC(=O)O)NC(=O)[C@H](CO)NC(=O)[C@@H](NC(=O)[C@H](Cc1ccccc1)NC(=O)[C@@H](NC(=O)CNC(=O)[C@@H](N)CCC(=O)O)[C@@H](C)O)[C@@H](C)CC)C(=O)N[C@@H](C)C(=O)N[C@@H](CCSC)C(=O)N[C@@H](CC(=O)O)C(=O)N[C@@H](CCCCN)C(=O)N[C@H](C(=O)N[C@@H](CCCCNC(=O)CCCCCCCCCCCCCCC(=O)O)C(=O)N[C@@H](CCC(N)=O)C(=O)N[C@@H](CCC(N)=O)C(=O)N[C@@H](CC(=O)O)C(=O)N[C@@H](Cc1ccccc1)C(=O)N[C@H](C(=O)N[C@@H](CC(N)=O)C(=O)N[C@@H](Cc1c[nH]c2ccccc12)C(=O)N[C@@H](CC(C)C)C(=O)N[C@@H](CC(C)C)C(=O)N[C@@H](C)C(=O)N[C@@H](CCC(N)=O)C(=O)N[C@@H](CCCCN)C(=O)NCC(=O)N[C@@H](CCCCN)C(=O)N[C@@H](CCCCN)C(=O)N[C@@H](CC(N)=O)C(=O)N[C@@H](CC(=O)O)C(=O)N[C@@H](Cc1c[nH]c2ccccc12)C(=O)N[C@@H](CCCCN)C(=O)N[C@@H](Cc1c[nH]cn1)C(=O)N[C@@H](CC(N)=O)C(=O)O)C(C)C)[C@@H](C)CC [mGIPAnt‐1] (H-EGTFISDYSIAMDKIK(C16 diacid)QQDFVNWLLAQKGKKNDWKHN-OH)
- activation of mouse GLP‐1 receptor (cAMP) [1]: does not induce activation
- glucose curve and iAUC, OGTT ([2]; 7 weeks of 300 nmol·kg−1 s.c. daily, 2 g·kg−1 oral glucose): did not affect
- insulin curve and iAUC, OGTT ([2]; 7 weeks of 300 nmol·kg−1 s.c. daily, 2 g·kg−1 oral glucose, ELISA): did not affect
- fasting insulin levels ([2]; 7 weeks of treatment): not affected
- fasting glucose levels, HFD ([2]; 7 weeks of treatment, versus Vehicle/HFD): significantly decreased
- terminal plasma glycerol [3]: did not significantly affect
- terminal plasma triglyceride [3]: did not significantly affect
- terminal plasma adiponectin ([3]; ELISA): did not significantly affect
- terminal plasma glycerol, HFD versus Vehicle/HFD ([3]; did not reach significance): trend towards increased glycerol levels
